According to PMC11589101, “Profiling the endocrine-disrupting properties of triazines, triazoles, and short-chain PFAS” (Toxicological Sciences, 2024):

Columns and labels:
[1] = target: T1, human transthyretin (TTR) (Homo sapiens, UniProt P02766); assay: FITC-T4 TTR-binding assay, initial (original) method; details: for IC10 competing with FITC-T4 for binding to TTR: initial method, 110 nM FITC-T4, 30 nM TTR
Method: (§1) All incubations were performed at room temperature.
(§2) Fluorescence enhancement was determined for each well by subtracting its relative fluorescence units (RFU) before TTR addition from its RFUs after TTR addition. The resulting values were normalized to percentages of the vehicle control. A concentration–response curve was fitted through the data using the same model as in the reporter gene assays.
After 15 min of incubation, fluorescence was measured and fluorescence enhancement was calculated by subtracting RFU without TTR from RFU with TTR. Further data analysis was similar to the screening assays.

[2] = target: T1, human transthyretin (TTR); assay: FITC-T4 TTR-binding assay, screening method
Method: as §1
In the screening tests, 48 μl of Tris-HCl buffer (pH 8.0) was added to each well of black low-binding 96-well plates. Two microliters of each test compound dissolved in their respective solvent was added to each well and the plate was shaken at 600 rpm for 5 min. […] Fluorescence was measured again to check for possible autofluorescence or quenching by the test compound.
as §2

[3] = tested on: steroidogenesis in H295R cells; type: cell-based, human; details: highest noncytotoxic exposure concentration, 48 h
Method: (§3) All experiments were performed using cells in passages 5 to 10. First, the highest noncytotoxic concentration (<10% decrease in viability) was determined for each compound with MTT assays. Next, the levels of 13 steroid hormones were determined in the medium after exposure of the H295R cells to the highest noncytotoxic concentration using LC-MS/MS. These concentrations were tested in triplicate (n = 3) in 3 independent experiments (N = 3), and all 9 samples were measured in LC-MS/MS. […] These dilution series were tested in 3 independent experiments (N = 3), with triplicate exposures in each of these experiments (n = 3). Supernatants of the triplicate exposures per experiment were pooled after the 48 h of exposure and the 3 pooled samples were measured with LC-MS/MS. This was done to keep the number of LC-MS/MS measurements manageable.
The exposure medium was prepared by diluting stock solutions 1,000× in the cell culture medium to obtain a final concentration of 0.1% of the solvent. Exposure was started by replacing cell culture medium with the exposure medium. […] On a separate quality control plate, cells were exposed to 10 μM forskolin (Sigma-Aldrich) and 1 μM prochloraz (Sigma-Aldrich) to serve as positive control for increased and decreased steroid hormone secretion, respectively. Exposure was started by replacing the culture medium in the cell culture plates with the exposure medium.
(§4) After 48 h of exposure, the supernatant medium from each well was transferred to the wells of a clean 48-well plate, and that plate was stored at −80 °C for later steroid measurement. MTT assays were performed by adding 500 μl of 0.5 mg/ml MTT (3-(4,5-dimethylthiazol-2-yl)-2,5-diphenyltetrazolium bromide; Sigma-Aldrich) solution in medium to each well of the 24-well cell culture plate and incubating for 1 h at 37 °C with 5% CO2. After incubation, the MTT solution was discarded and 500 μl of DMSO was added to each well to lyse the cells and dissolve the formazan crystals. Plates were shaken at 700 rpm for 10 min and absorbance was measured at 560 nm wavelength.
Hormones were concentrated from supernatants by solid phase extraction using Bond Elut Plexa cartridges, 30 mg sorbent, 1.8 ml (Agilent Technologies, Santa Clara, CA, United States). The cartridges were conditioned with 1 ml of 0.5% formic acid in methanol, and subsequent addition of 1 ml of 0.5% formic acid in water. A mix of 100 μl of H295R medium sample in 1 ml of 2% formic acid in water and 50 μl of isotopically labeled internal standards mix (Table S1) was loaded on the cartridges. These were then washed with 1 ml of water followed by 1 ml of water–methanol mixture (70:30, v/v). Cartridges were dried by vacuum and the hormones were eluted with 700 μl of methanol into 96-well-deep well polypropylene plates. Eluates were evaporated to dryness during approximately 2 h in a refrigerated CentriVap vacuum concentrator and reconstituted in 150 μl of water–methanol mixture (1:1, v/v). Additionally, a serial 12-point dilution series of a mix of native steroid hormones was prepared to fit a calibration curve in order to quantify steroid concentrations.
The steroid hormones were separated prior to MS measurements on a Kinetex C18 LC Column (2.6 μm, 100 × 2.1 mm; Phenomenex, CA, United States) coupled to an Exion LC system (SCIEX, Framingham, MA, United States). The mobile phase consisted of 0.2 mM NH4F in water and pure methanol and was delivered at a flow rate of 0.6 ml/min in a gradient elution mode. The injection volume was 10 μl.
The LC-MS/MS raw data were processed using AB Sciex OS Analyst version 1.6.2 (SCIEX, Framingham, MA, United States) to calculate fold changes by dividing the measured hormone concentrations by the hormone concentrations in the vehicle controls. The fold changes were used to fit a concentration–response curve in GraphPad Prism using the same model as in the reporter gene assays, and the ECIR1.5 was estimated for each compound.

VM7Luc4E2 cells = assay: Resazurine cell viability assay in VM7Luc4E2 cells; type: cell-based, human; details: 24 h
[4] = tested on: AR-Ecoscreen-GR-KO M1 cells; assay: Resazurine cell viability assay in AR-Ecoscreen-GR-KO M1 cells; details: 24 h
Method: The cell culture medium was discarded and replaced with 100 μl of fresh assay medium. […] Exposure conditions (24 h; 37 °C; 5% CO2), resazurine assay, and luciferase measurements were similar to described for the VM7Luc4E2 cells.

GH3.TRE cells = assay: Resazurine cell viability assay in GH3.TRE cells
Method: Exposure medium was added to the cells immediately after seeding. […] Exposure conditions, resazurine assay, and luciferase measurements were similar as described for the VM7Luc4E2 cells.

[5] = tested on: thyroid hormone receptor (TR); assay: TR-Luc reporter gene assay, antagonism (coexposure with 110 pM T3); type: cell-based; details: for TR antagonism % max combined: coexposure with 110 pM T3
H295R cells = assay: MTT cell viability assay in H295R cells; type: cell-based, human; details: H295R cells, 48 h
Method: as §3, with “For the H295R assay, the culturing and exposure of cells were performed according to OECD Test Guideline No. 456 ([OECD 2011]). All” for “All”
as §4, with “wavelength. Concentrations causing >10% decrease in cell viability were excluded from the hormone analysis, and test compounds were retested at a lower concentration.” for “wavelength.”

[6] = GH3.TRE cells, coexposed with 110 pM T3, 24 h

## CC(C)(C)C(O)C(Oc1ccc(-c2ccccc2)cc1)n1cncn1 (centres unmarked) [Bitertanol]
[1]
  IC50: 62.7 µM
  IC10 competing with FITC-T4 for binding to TTR: 0.22 µM
[1]; 0.1 uM
  % FITCT4 bound to TTR: 93.4196%
[1]; 0.3 uM
  % FITCT4 bound to TTR: 88.4453%
[1]; 1 uM
  % FITCT4 bound to TTR: 84.7037%
[1]; 3 uM
  % FITCT4 bound to TTR: 79.29%
[1]; 10 uM
  % FITCT4 bound to TTR: 64.391%
[1]; 30 uM
  % FITCT4 bound to TTR: 52.4704%
[1]; 100 uM
  % FITCT4 bound to TTR: 49.6904%
[2]
  IC50: 20.5 µM
[3]
  effect on steroid hormone levels compared with vehicle-treated controls: decreased levels of androgens
VM7Luc4E2 cells; 100 μM
  decrease in viability: more than 10%
[4]; 100 μM
  cytotoxicity in the resazurine assay: significant cytotoxicity
GH3.TRE cells; 100 μM
  cytotoxicity: More than 10%

## CC1COC(Cn2cncn2)(c2ccc(Oc3ccc(Cl)cc3)cc2Cl)O1 (centres unmarked) [Difenoconazole]
[5]; 0.3 uM
  TR antagonism % max combined: 100.42%
[5]; 1 uM
  TR antagonism % max combined: 84.26%
[5]; 3 uM
  TR antagonism % max combined: 56.28%
[5]; 10 uM
  TR antagonism % max combined: 27.83%
[5]; [6]
  IC50: 4.1 µM
  TR antagonism IC10: 0.64 µM
[1]
  IC50: 38.5 µM
  IC10 competing with FITC-T4 for binding to TTR: 0.23 µM
[1]; 0.1 uM
  % FITCT4 bound to TTR: 94.3698%
[1]; 0.3 uM
  % FITCT4 bound to TTR: 86.9998%
[1]; 1 uM
  % FITCT4 bound to TTR: 84.4625%
[1]; 3 uM
  % FITCT4 bound to TTR: 79.4508%
[1]; 10 uM
  % FITCT4 bound to TTR: 60.3391%
[1]; 30 uM
  % FITCT4 bound to TTR: 47.2598%
[1]; 100 uM
  % FITCT4 bound to TTR: 44.9874%
[2]
  IC50: 22 µM
[3]
  effect on steroid hormone levels compared with vehicle-treated controls: no effect on androgen levels, but showed decreased levels of corticosteroids
  increased levels of 17α-OH-progesterone compared with vehicle-treated controls: more than 8 fold
VM7Luc4E2 cells; 30 and 100 μM
  decrease in viability: more than 10%
[4]; 30 and 100 μM
  cytotoxicity in the resazurine assay: significant cytotoxicity
GH3.TRE cells; 30 and 100 μM
  cytotoxicity: More than 10%
H295R cells
  highest exposure concentration with <10% decrease in cell viability: 3 µM

## N#CC(CCc1ccc(Cl)cc1)(Cn1cncn1)c1ccccc1 (centres unmarked) [Fenbuconazole]
[3]
  effect on steroid hormone levels compared with vehicle-treated controls: decreased levels of androgens, estrogens, and corticosteroids
  increased levels of 17α-OH-progesterone compared with vehicle-treated controls: more than 8 fold
VM7Luc4E2 cells; 100 μM
  decrease in viability: more than 10%
[4]; 100 μM
  cytotoxicity in the resazurine assay: significant cytotoxicity
GH3.TRE cells; 30 and 100 μM
  cytotoxicity: More than 10%
